The results in this text go back to paper PMC3641071, “Pharmacokinetics and Efficacy of PEGylated Liposomal Doxorubicin in an Intracranial Model of Breast Cancer” (PLoS ONE, 2013).

Molecules are shown by their SMILES. pIC50: −log10 of the molar value. Where two headings read alike, the source gives them in different places.

Data set [1] concerns intracranial MDA-MB-231-BR luciferase-expressing tumors. The experiment in a line: Bioluminescence imaging of intracranial tumors. Format: in vivo, Foxn1nu/nu mice. On the procedure:
All animals were anesthetized via inhalation with 2% vaporized isoflurane during the imaging process. Approximately 15 min prior to imaging, all inoculated mice received an intraperitoneal (IP) injection of D-Luciferin dissolved in PBS (150 mg/kg; Caliper Life Sciences, Hopkinton, MA). To confirm the presence or absence of intracranial tumor, mice were imaged using the IVIS Lumina camera (Caliper Life Sciences, Hopkinton, MA). Images were analyzed using Living Image 4.0 Software (Caliper Life Sciences, Hopkinton, MA). All values were recorded as photons/second and were corrected for the presence of background signal.
Treatment was ongoing until clinical symptoms necessitated sacrifice. […] Mice were weighed a minimum of three times/weekly and were monitored by optical imaging weekly until clinical symptoms (i.e. decreased response to stimuli, neurologic dysfunction, weight loss of 20% and/or a Body Composition Score of 2 or less) necessitated sacrifice.
The Kaplan-Meier method and Log-rank tests were used to evaluate and compare overall survival among treatment groups. […] For bioluminescence imaging, fold changes were calculated relative to the start date of treatment. If present, negative imaging values (due to correction for background) were recorded and set to zero. […]

For data set [2], the system named is MDA-MB-231-BR cells. The experiment in a line: Cell viability (MTS) assay, single agent and combination treatments. Format: cell-based. To be noted: Homo sapiens, read-out: IC50 (50% reduction in MTS dye conversion), 72 hours, single agent. On the procedure:
A mitochondrial dye conversion assay (Cell Titer 96® Aqueous One Solution Cell Proliferation Assay; Promega Corp., Madison, WI) was used to measure cell viability after treatment. This assay was conducted according to manufacturer's instructions, with modifications. […] Cell counting was performed with an automated cell counter. Cells were allowed to adhere overnight, and media was replaced with fresh media containing a range of drug doses. After the specified treatment period, 20 µl of tetrazolium compound inner salt (MTS) containing an electron coupling reagent, phenazine ethosulfate (PES) was added in each well and incubated at 37°C for 1 hour (h). The MTS absorbance was measured spectrophotometrically at 490 nm (minus background absorbance). All cytotoxic experiments were done in triplicate.
Drug combination interactions were analyzed using methods developed by Chou and Talalay.
CalcuSyn (BioSoft, Cambridge, UK) was used to estimate the IC50 for each drug and to determine the combination index, which is a measurement of the type of drug interactions. A combination index (CI) of 1 indicates an additive response, <1 indicates a synergistic response, and >1 indicates an antagonistic response.
Background: Tetrazolium assays rely on reduction of a dye to a coloured formazan, in cell work by metabolically active cells.

Data set [3] deals with formation of PAR in MDA-MB-231-BR cellular extracts. Description: PAR levels in cellular extracts (HT PARP in vivo Pharmacodynamic Assay II). Format: cell-based, human. To be noted: data not shown. As for the experimental part:
Doxorubicin (NonL-doxo) and PEGylated liposomal doxorubicin (PLD, Doxil®) were both obtained from the University of North Carolina (UNC) Hospitals Pharmacy (Chapel Hill, NC). The poly-ADP-ribose polymerase (PARP) inhibitor, ABT-888, was synthesized by the Chemistry Center for Integrative Chemical Biology and Drug Discovery at UNC (Dr. S. Frye). ABT-888 was dissolved in PBS (phosphate-buffered saline, Life Technologies, Grand Island, NY). The molecular weight of pure ABT-888 is 244.29 g/mol, while the molecular weight of the salt form (which includes 2 HCl molecules) is 317.21 g/mol. All calculations were performed using the molecular weight of the salt form of ABT-888. The ability of ABT-888 to inhibit the formation of PAR was confirmed by measuring PAR levels in MDA-MB-231-BR cellular extracts using HT PARP in vivo Pharmacodynamic Assay II (Trevigen, Gaitherburg, MD, data not shown).

Data set [4] relates to intracranial MDA-MB-231-BR human triple-negative breast cancer xenografts. Description: Efficacy study: median survival in intracranial model of breast cancer. Format: in vivo, Foxn1nu/nu mice. To be noted: single agent, control 26 (25-28).
Description: Therapeutic studies and assessment for response were performed with the assistance of the Mouse Phase I Unit (MP1U). Female, Foxn1^nu/nu mice, approximately 20 grams and aged 8 weeks of age were bred in-house from animals purchased from Charles River Laboratories International, Inc. (Wilmington, MA; Stock #490) and were used for all studies. […] Cells were stereotactically-injected into the right caudate nucleus of the basal ganglia using a 27 gauge needle (from Bregma a:1.0mm, l:-2.0 mm, d:-4.0 mm) which remained in place for a period of 2 minutes (min) to minimize reflux through the needle track.
The Kaplan-Meier method and Log-rank tests were used to evaluate and compare overall survival among treatment groups. Unadjusted p-values are reported. For bioluminescence imaging, fold changes were calculated relative to the start date of treatment. […] For every time point where at least two animals were alive in the treatment group, the median level and interquartile range (25th–75th percentile) for bioluminescence imaging were calculated.
A short description of data set [5]: Pharmacokinetic study: sum total doxorubicin in plasma, brain tumor and brain by HPLC-FL. It counts as in vivo. To be noted: 6 mg/kg IV x1; for AUC(0-inf): read-out: AUC0-∞ of sum total doxorubicin. As for the experimental part: Group 1 (n = 23) received NonL-doxo administered over 10–15 seconds at 6 mg/kg IV ×1 via tail vein.
Approximately 1 mL of blood was collected via terminal cardiac puncture following deep anesthesia (ketamine 100 mg/kg IP ×1 and Domitor® 1 mg/kg IP ×1) using sodium heparin as an anticoagulant and centrifuged at 1,500 g for 5 minutes to collect plasma. Brain tumor, peri-tumoral brain and normal (contralateral, non-tumor) brain were collected from each mouse. Plasma, tumor, and tissues were placed in cryopreservation vials and preserved by snap freezing using liquid nitrogen. All samples were stored at −80°C until analysis.
Total tissue and tumor weight was recorded at time of collection. Whole tissue and tumors were snap frozen in liquid nitrogen and stored at −80°C until homogenized. To form tissue and tumor homogenates, the intact tissues and tumors were thawed and sectioned. The sections were weighed and diluted in a 1:3 ratio with phosphate buffered saline (PBS) solution. Finally, these mixtures were homogenized by placing zirconium oxide beads (15 small and 2 large; Omni International Inc, Kennesaw, GA) into 2 mL tubes at […] using a Precellys 24 homogenizer (Omni International Inc, Kennesaw, GA) twice for 15 sec each with a 5 sec wait between each run.
Samples were further processed for the analytical studies using protein precipitation with acetonitrile. An 800 µL of extraction solution containing internal standard (acetonitrile with 100 ng/mL daunorubicin) was added to 200 µL of plasma, tumor or tissue homogenate into a 2 mL microcentrifuge tube. The samples were vortexed for 10 min and centrifuged at 10,000×g for 10 min at 4°C. […] The samples were then vortexed, transferred into auto-sampler vials and analyzed by high-performance liquid chromatography (HPLC) using fluorescence (FL) detection (excitation wavelength: 490 nm/ emission wavelength: 590 nm). The HPLC-FL method to measure sum total (encapsulated and released) doxorubicin in plasma, tumor, and tissues was modified from previous studies, [23], [24].
The area under the concentration versus time curve from 0 to ∞ (AUC0–∞) was calculated using the linear up/log down rule. The plasma volume of distribution (Vd), clearance (CL), and half-life (t1/2) were calculated using standard equations. The maximum concentration (Cmax) and time of Cmax (tmax) were determined by visual inspection of the concentration versus time data.

[6] abbreviates: female, athymic nude (nu/nu), mouse, brain tumor.
The mark [7] stands for this setting: female, athymic nude (nu/nu), mouse, normal brain.
Where [8] appears, read: female, athymic nude (nu/nu), mouse, peri-tumoral brain.
Setting [9] is: female, athymic nude (nu/nu), mouse, plasma.

A word on the pIC50: it is the negative decadic logarithm of the IC50, by convention in mol/L. Take `C[C@]1(c2nc3c(C(N)=O)cccc3[nH]2)CCCN1` [ABT-888]: the “highest median fold change from baseline in bioluminescence” value in data set [1] (ABT-888 25 mg/kg/day OG, 4 weeks post-treatment, control 87.8 at 3 weeks) was 41.8. For the same compound, the pIC50 in data set [2] is 3.56. The “ability to inhibit the formation of PAR” value in data set [3] was “confirmed”. Further, in data set [4] (ABT-888 25 mg/kg/day oral gavage, 25 mg/kg/day), the “Median Survival and 95% CI” value is 27 (24 – 31) days.

As a reminder, the Cmax is the maximum level reached in the sampled fluid or tissue. One may read the Tmax as the time at which the peak concentration occurs. As usually defined, the Vd is a proportionality between amount in the body and measured concentration, not a real space. Consider `COc1cccc2c1C(=O)c1c(O)c3c(c(O)c1C2=O)C[C@@](O)(C(=O)CO)C[C@@H]3O[C@H]1C[C@H](N)[C@H](O)[C@H](C)O1` [NonL-doxo, Doxorubicin], for which, in data set [1] (6 mg/kg IV weekly single agent, 3 weeks post-treatment), the “highest median fold-change in bioluminescence” value is recorded as 4.6. Further, the pIC50 in data set [2] is 6.62. In data set [4] (6 mg/kg IV weekly, from intracranial cell injection), the “Median Survival and 95% CI” value is 23.5 (18 – 28) days. The “time after which sum total doxorubicin was undetectable” value in data set [5] (brain tumor) was 24 h; in data set [5] (normal (contralateral, non-tumor) brain) it was 3 h; in data set [5] (peri-tumoral brain) it was 6 h; in data set [5] (plasma) it was 24 h. Also, the Cmax in data set [5] (setting [6]) is 570 ng/mL; in data set [5] (setting [7]), 92 ng/mL; in data set [5] (setting [8]), 32 ng/mL; in data set [5] (setting [9]), 831 ng/mL. Moreover, the Tmax was 6 h in data set [5] (setting [6]), 1 h in data set [5] (setting [7]), 3 h in data set [5] (setting [8]) and 0.083 h in data set [5] (setting [9]). Also, the AUC(0-inf) was determined as 12100 ng·h/mL in data set [5] (setting [6]); 326 ng·h/mL in data set [5] (female, athymic nude (nu/nu), mouse, normal (contralateral, non-tumor) brain); 283 ng·h/mL in data set [5] (setting [8]); 1540 ng·h/mL in data set [5] (female, athymic nude (nu/nu), mouse, plasma, noncompartmental). In data set [5] (setting [9]), this compound came in with a Vd of 56.2 L/kg. Also, the clearance in data set [5] (female, athymic nude (nu/nu), mouse, plasma, read-out: CL of sum total doxorubicin (converted)) is 64.7 mL/min/kg. Further, the half-life in data set [5] (female, athymic nude (nu/nu), mouse, plasma, read-out: t1/2 of sum total doxorubicin (converted)) is 600 min.
